From PMC11079024, “Identification of a family of species-selective complex I inhibitors as potential anthelmintics” (Nature Communications, 2024)
“And” between values parts separate entries of the source, which are not always exact repeats. Equal entries are not always repeated.

How the values were obtained:
[1] = target: C. elegans (N2) complex I (NADH:ubiquinone oxidoreductase) (Caenorhabditis elegans, UniProt P24887+Q93873+Q94360); assay: biochemical; type: biochemical; details: for % Activity Complex I: 100 µM compound, relative to solvent control, mean (SEM); for Percent in vitro activity, Complex I (single replicate Rep1-Rep4) / Percent in vitro activity, Complex I (Mean): 100 μM of NPD compound, C. elegans mitochondria; for Percent in vitro activity, Complex I (single replicate Rep1-Rep4): individual biological replicates; for Percent in vitro activity, Complex I (Mean): mean of four biological replicates
C. elegans (N2) complex I (NADH:ubiquinone oxidoreductase), sequence (Q94360 17-199): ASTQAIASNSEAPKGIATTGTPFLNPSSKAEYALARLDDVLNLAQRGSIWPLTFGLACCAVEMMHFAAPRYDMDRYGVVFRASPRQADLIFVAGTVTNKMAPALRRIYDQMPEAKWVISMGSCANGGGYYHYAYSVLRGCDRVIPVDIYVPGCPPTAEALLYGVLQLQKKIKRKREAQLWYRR
C. elegans (N2) complex I (NADH:ubiquinone oxidoreductase), sequence (P24887 whole entry): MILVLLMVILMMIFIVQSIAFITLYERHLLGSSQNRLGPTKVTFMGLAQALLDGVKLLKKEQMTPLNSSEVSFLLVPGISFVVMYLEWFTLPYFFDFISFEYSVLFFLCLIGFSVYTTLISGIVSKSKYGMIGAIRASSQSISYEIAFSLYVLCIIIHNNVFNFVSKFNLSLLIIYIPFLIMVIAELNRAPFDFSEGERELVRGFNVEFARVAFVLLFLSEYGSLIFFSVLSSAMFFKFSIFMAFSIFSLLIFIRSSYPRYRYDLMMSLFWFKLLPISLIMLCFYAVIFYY
C. elegans (N2) complex I (NADH:ubiquinone oxidoreductase), sequence (Q93873 31-482): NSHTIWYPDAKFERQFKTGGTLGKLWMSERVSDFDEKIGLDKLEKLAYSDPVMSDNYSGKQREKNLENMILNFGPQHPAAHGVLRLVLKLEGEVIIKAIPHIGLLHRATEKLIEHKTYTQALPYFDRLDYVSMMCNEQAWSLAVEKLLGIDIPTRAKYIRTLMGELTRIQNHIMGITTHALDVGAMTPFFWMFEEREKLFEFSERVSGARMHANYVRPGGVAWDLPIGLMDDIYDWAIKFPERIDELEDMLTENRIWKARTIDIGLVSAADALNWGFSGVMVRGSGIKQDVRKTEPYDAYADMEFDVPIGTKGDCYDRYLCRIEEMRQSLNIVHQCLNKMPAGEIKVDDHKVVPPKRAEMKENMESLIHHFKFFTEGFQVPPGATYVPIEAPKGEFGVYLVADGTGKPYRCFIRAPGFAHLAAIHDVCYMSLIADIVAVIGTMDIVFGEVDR
Summary of the method: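 Mitochondria, 0.2 mg/mL protein, freeze-thawed three times, assayed in 25 mM KPi pH 7.5 with BSA, 80 μM NADH, 60 μM decylubiquinone, 160 μM DCIP, antimycin A and KCN. Rate from initial linear slope of A600 over 15 min. % of solvent control.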

[2] = target: C. elegans complex II (succinate dehydrogenase) (Caenorhabditis elegans, UniProt O62215+P41956+Q09545); assay: In vitro complex II activity assay, C. elegans mitochondria; type: biochemical; details: for % Activity Complex II: 100 µM compound, relative to solvent control, mean (SEM); for Percent in vitro activity, Complex II (single replicate Rep1-Rep4) / Percent in vitro activity, Complex II (Mean): 100 μM of NPD compound, C. elegans mitochondria; for Percent in vitro activity, Complex II (single replicate Rep1-Rep4): individual biological replicates; for Percent in vitro activity, Complex II (Mean): mean of four biological replicates
C. elegans complex II (succinate dehydrogenase), sequence (P41956 30-182): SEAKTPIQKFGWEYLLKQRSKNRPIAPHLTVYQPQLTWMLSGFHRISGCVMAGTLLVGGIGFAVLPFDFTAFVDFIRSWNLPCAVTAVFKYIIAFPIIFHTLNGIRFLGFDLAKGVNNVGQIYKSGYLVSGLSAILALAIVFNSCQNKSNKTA
C. elegans complex II (succinate dehydrogenase), sequence (Q09545 22-298): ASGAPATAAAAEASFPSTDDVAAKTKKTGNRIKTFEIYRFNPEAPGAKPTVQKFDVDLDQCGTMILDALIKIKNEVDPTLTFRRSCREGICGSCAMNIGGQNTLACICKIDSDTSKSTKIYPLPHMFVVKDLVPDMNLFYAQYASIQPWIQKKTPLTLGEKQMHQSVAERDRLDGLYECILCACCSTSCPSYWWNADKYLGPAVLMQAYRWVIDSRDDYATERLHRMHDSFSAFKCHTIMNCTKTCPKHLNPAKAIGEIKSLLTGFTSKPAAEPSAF
C. elegans complex II (succinate dehydrogenase), sequence (Q09508 32-646, further chain): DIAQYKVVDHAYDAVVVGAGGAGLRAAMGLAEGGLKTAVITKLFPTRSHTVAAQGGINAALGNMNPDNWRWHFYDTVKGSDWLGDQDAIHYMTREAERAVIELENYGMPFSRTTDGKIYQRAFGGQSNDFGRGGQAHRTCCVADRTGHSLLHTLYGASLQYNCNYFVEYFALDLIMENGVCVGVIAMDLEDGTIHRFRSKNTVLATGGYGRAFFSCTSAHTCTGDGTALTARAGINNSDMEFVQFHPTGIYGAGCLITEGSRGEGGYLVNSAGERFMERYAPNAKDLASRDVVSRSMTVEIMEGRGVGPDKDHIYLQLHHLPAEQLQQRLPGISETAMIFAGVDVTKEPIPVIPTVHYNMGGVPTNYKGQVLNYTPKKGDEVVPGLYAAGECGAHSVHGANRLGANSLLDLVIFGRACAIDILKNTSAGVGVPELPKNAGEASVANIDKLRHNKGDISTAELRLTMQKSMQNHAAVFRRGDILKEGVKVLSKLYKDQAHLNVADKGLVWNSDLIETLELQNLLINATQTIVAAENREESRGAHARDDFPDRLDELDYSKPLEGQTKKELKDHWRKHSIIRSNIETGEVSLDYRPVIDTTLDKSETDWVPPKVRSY
C. elegans complex II (succinate dehydrogenase), sequence (O62215 31-145): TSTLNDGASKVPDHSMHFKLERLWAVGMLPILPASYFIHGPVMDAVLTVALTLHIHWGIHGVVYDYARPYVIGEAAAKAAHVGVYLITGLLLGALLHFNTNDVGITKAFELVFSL
Protocol: (§1) Mitochondria were isolated from the following free-living nematode strains: C. elegans—N2, CB3474, ECA882, ECA917, ECA1075, ECA1080; C. briggsae—AF16; P. pacificus—PS312; and P. hermaphrodita—B178. With the exception of the P. hermaphrodita strain B178, adult worms of each strain were grown in bulk through liquid culture to obtain mitochondria in sufficient quantities. Due to poor growth in liquid media, mixed stage populations of P. hermaphrodita were washed off and collected from NGM plates seeded with OP50. The isolation of mitochondria from all free-living nematode strains followed the protocol previously outlined in Burns et al.[24]. In brief, a 1 L saturated culture of E. coli HB101 was concentrated 20-fold in 50 mL complete S-medium. ~500,000 L1 worms synchronized from an embryo preparation performed the day prior were added to the S-media/HB101 suspension and grown to adulthood over the course of 3.5 days at 20 °C with shaking at 165 rpm. Following growth, worms were collected in 10 ×15 mL conical tubes and washed 7 times in M9 buffer. Worm suspensions were then combined into a single 15 mL conical tube and diluted to a final volume of 15 mL with M9 buffer. 1 mL aliquots of worm suspension were then distributed to 15 × 1.5 mL screw-cap microcentrifuge tubes and were pelleted at 500 g for 1 min. Excess M9 was aspirated without disturbing the worm pellet. 600 μL ice-cold isolate buffer A (250 mM sucrose, 10 mM Tris (pH 7.5), 1 mM EDTA, 1 mM PMSF (freshly prepared)) and 300 μL cold glass beads were then added to each tube. Tubes were incubated on ice for 10 min, and the worms were then lysed by bead beating (6 x 30 s, with 1 min cooling intervals). Tubes containing worm lysate were centrifuged at 1,000 g for 10 min at 4 °C and the supernatant was transferred to 15 new microcentrifuge tubes on ice. The tubes were centrifuged a second time at 1,000 g for 10 min at 4 °C and the supernatant was once again transferred to 15 new microcentrifuge tubes on ice. These tubes were then centrifuged at 16,000 g for 10 min at 4 °C. The resulting mitochondrial pellet was washed twice by re-suspension in 300 μL of ice-cold isolate buffer B (250 mM sucrose, 10 mM Tris (pH 7.5), 1 mM EDTA). Following the final wash, isolation buffer was aspirated from each tube and the pellets were flash-frozen in ethanol/dry ice and stored at −80 °C until needed.
(§2) The enzymatic activities of individual ETC complexes (I-IV) were assessed spectrophotometrically in isolated mitochondria using a Varioskan LUX Multimode plate reader (ThermoFisher Scientific). Mitochondrial pellets previously isolated were thawed on ice and resuspended in ice-cold isolation buffer (250 mM sucrose, 10 mM Tris (pH 7.5), 1 mM EDTA). The BCA assay (Walker, 1994) was used to quantify the protein concentration of mitochondria suspensions; solutions were diluted to a concentration of 0.2 mg/mL for use in all assays. For the complex I assay, mitochondria pellets were freeze-thawed on ice three times to increase enzyme accessibility. […] 20 μL mitochondria suspension was then added/mixed with a pipette to initiate the reaction. Immediately following the addition of mitochondria, absorbance was measured (complex I and II: 600 nm; complex III and IV: 550 nm) in 30 s intervals over 15 min. Enzymatic activity was determined in each reaction by plotting absorbance versus time and calculating the slope of the curve during the initial linear phase of the reaction. […] Percent activity of each complex was calculated by dividing the enzyme-specific activity of each well by the enzyme-specific activity of the corresponding solvent controls.
Complex II (succinate dehydrogenase) activity was assessed using the DCIP-coupled method previously described in Burns et al.[24].
For preliminary screens of hit compounds, compounds were screened at 100 μM; data are the average of at least three biological replicates. The complex I and II activity assays were used for additional dose-response experiments.

[3] = test system: C. elegans complex III (decylubiquinol-cytochrome C reductase); assay: In vitro complex III activity assay, C. elegans mitochondria; type: biochemical, Caenorhabditis elegans; details: for % Activity Complex III: 100 µM compound, relative to solvent control, mean (SEM); for Percent in vitro activity, Complex III (single replicate Rep1-Rep4) / Percent in vitro activity, Complex III (Mean): 100 μM of NPD compound, C. elegans mitochondria; for Percent in vitro activity, Complex III (single replicate Rep1-Rep4): individual biological replicates; for Percent in vitro activity, Complex III (Mean): mean of four biological replicates
Protocol: as §1, §2
Antimycin A-sensitive complex III (decylubiquinol-cytochrome C […]) activity was determined by measuring the reduction of cytochrome C (CytC) as optimized in Luo et al.[59]. Decylubiquinol for complex III assays was prepared fresh as described in Janssen and Boyle, 2019[60].

[4] = test system: C. elegans complex IV (cytochrome C oxidase); assay: In vitro complex IV activity assay, C. elegans mitochondria; type: biochemical, Caenorhabditis elegans; details: for % Activity Complex IV: 100 µM compound, relative to solvent control, mean (SEM); for Percent in vitro activity, Complex IV (single replicate Rep1-Rep4) / Percent in vitro activity, Complex IV (Mean): 100 μM of NPD compound, C. elegans mitochondria; for Percent in vitro activity, Complex IV (single replicate Rep1-Rep4): individual biological replicates; for Percent in vitro activity, Complex IV (Mean): mean of four biological replicates
Protocol: as §1, §2
Complex IV (cytochrome C oxidase) activity was determined by following the oxidation of CytC in the protocol outlined by Janssen and Boyle, 2019[60]. Reduced CytC was prepared fresh by adding 1 μL increments of 1 M dithiothreitol to a 1 mM solution of CytC and vortexing. A colour change from brown to orange/pink signals when CytC has been reduced.

[5] = test system: C. elegans; assay: C. elegans chemical screens of RIKEN NPD libraries at 50 μM (hit identification in KCN survival and development/viability assays); type: cell-based, Caenorhabditis elegans; details: screened at 50 μM in triplicate; hit = modified z-score < −3; KCN = KCN survival assay, Dev. & Viability = development/viability assay
[6] = test system: L1 wild-type C. elegans; details: for LC50: caenorhabditis elegans
[7] = test system: HEK293 cells; details: read-out: HEK293 Cell Viability Assay LC50; 2 days exposure

Row | SMILES | % Activity Complex I [1] | Percent in vitro activity, Complex I (single replicate Rep1-Rep4) [1] | Percent in vitro activity, Complex I (Mean) [1] [%] | % Activity Complex II [2] | Percent in vitro activity, Complex II (single replicate Rep1-Rep4) [2] | Percent in vitro activity, Complex II (Mean) [2] [%] | % Activity Complex III [3] | Percent in vitro activity, Complex III (single replicate Rep1-Rep4) [3] | Percent in vitro activity, Complex III (Mean) [3] [%] | % Activity Complex IV [4] | Percent in vitro activity, Complex IV (single replicate Rep1-Rep4) [4] | Percent in vitro activity, Complex IV (Mean) [4] [%] | Hit Type [5] | LC50 [6] [µM] | CC50 [7] [µM] | C. elegans L1 relative motility, 3-hour post 200 µM KCN dilution [6]
1 | CCCCCCCCCCCCCCCc1cccc(O)c1C(=O)O [Anacardic acid] | 92.95 (1.67) % | 100.303% and 96.789% and 88.185% and 86.534% | 92.953 | 87.62 (1.34) % | 86.093% and 91.144% and 92.500% and 80.735% | 87.618 | 0.00 (0.00) % | 0.000% | 0.000 | 15.80 (1.15) % | 11.285% and 16.095% and 13.805% and 22.025% | 15.803 | KCN | 3.35 | > 50 | 
2 | O=C(/C=C/c1ccccc1)/C=C/c1ccccc1 [FSL0005] | 91.90 (0.78) % | 93.303% and 89.704% and 95.600% and 88.991% | 91.900 | 80.91 (2.02) % | 88.395% and 79.227% and 70.277% and 85.744% | 80.911 | 103.92 (1.25) % | 104.719% and 106.444% and 107.817% and 96.693% | 103.918 | 92.29 (3.01) % | 87.534% and 94.293% and 79.459% and 107.854% | 92.285 | KCN | 0.93 | 7.48 | 0.000
3 | Cc1cc(O)c(C(=O)/C=C/c2ccc(C(C)C)cc2)c(=O)o1 [NPD6240] | 102.09 (1.80) % | 109.404% and 106.987% and 94.906% and 97.066% | 102.091 | 87.73 (3.81) % | 105.436% and 95.089% and 72.487% and 77.924% | 87.734 | 58.21 (2.30) % | 63.255% and 68.621% and 49.848% and 51.103% | 58.207 | 26.82 (0.75) % | 23.388% and 25.790% and 27.706% and 30.409% | 26.823 | KCN | 7.6 | 24.8 | 0.078
4 | Cc1cc(O)c(C(=O)/C=C/c2ccccc2)c(=O)o1 [NPD8366] | 102.66 (1.57) % | 109.574% and 101.002% and 105.233% and 94.820% | 102.657 | 86.41 (3.37) % | 86.839% and 91.030% and 67.920% and 99.847% | 86.409 | 76.74 (1.10) % | 80.994% and 79.847% and 74.350% and 71.759% | 76.737 | 97.72 (2.77) % | 88.563% and 105.997% and 87.809% and 108.514% | 97.721 | KCN | 11.6 | 19.7 | 
